The results in this text go back to US10689394B2, “Thieno[2,3-b]pyridine derivative, quinoline derivative, and use thereof” (The University of Tokyo, priority 2016, dated 2020).

The test concerns SOD1 G93A transgenic mice (ALS model mice). In words: ALS model mice, continuous intracerebroventricular administration (rotarod onset, survival, motor neuron count). Format: in vivo, mouse. As for the experimental part:
Wild-type mice (C57BL/6) and SOD1 G93A transgenic mice (G1L/+ line, backcrossed to C57BL/6) were purchased from The Jackson Laboratory, and were then mated and/or bred. All assays were carried out using only male mice.
Using Brain infusion kit 3 (Alzet) and an osmotic pump (Model 2006, Alzet), the compound was continuously administered into the cerebral ventricle of the SOD1 G93A transgenic mice (average onset: 28.1+1.3-week-old (Nishitoh et al., Genes Dev 22, 1451-1464, 2008)), from the time at which the mice were 22 weeks old (0.15 μL/h, 6 weeks/pump). As a preparation stage, 50% DMSO/PBS or each compound was filled into the pump, and was then immersed in 0.9% NaCl, so that priming was carried out 37° C. for 60 hours or more. Upon installation of the pump, the mice were anesthetized by intraperitoneal administration of 0.01 μL/g xylazine (1 mg/ml, Sigma) and 0.007 μL/g Pentobarbital Sodium Salt (5.4 mg/ml, Nacalai). The head portion of each mouse was dehaired, and the mouse was then fixed on a stereotaxic instrument equipped with a manipulator (NARISHIGE). Thereafter, the skin was cut, and the skull was exposed. The coordinate of Bregma was set at 0, and the position that was 1.1 mm to the right, 0.5 mm backward, and 2.5 mm downward was set at the coordinate of the administered cerebral ventricle. The pump was arranged under the dorsal skin, a cannula was then fixed using an adhesive, and the skin on the head portion of the mouse was closed using the adhesive. The pump was exchanged with a new one every 6 weeks, until it became difficult to perform surgery due to the onset of the pathologic conditions of ALS. Upon the exchange of the pump, the mouse was anesthetized, using 4% Isoflurane (Wako Pure Chemical Industries, Ltd.) for introduction, and 2% Isoflurane for maintenance. The dorsal surface of the pump-inserted site was dehaired, and the skin was excised to remove the pump. The removed pump was exchanged with a new pump that had previously been filled with 50% DMSO/PBS or each compound. After the exchange of the pump, the excised skin was closed with Wound clip (Alzet).
From the week at which the mice became 25 weeks old, motor function was measured three times a week according to a rotarod test. ROTA-ROD (Muromachi Kikai Co., Ltd.) was set at a reached rotation speed of 40 rpm and an acceleration time of 180 seconds. The period of time required until the target mouse was fallen during 300 seconds at longest was recorded. An interval of 180 seconds was provided between two trials. Two measurements were carried out in each trial, and better results were determined to be the results of the day. An average value in a week was calculated. […]
(The rotarod test checks motor coordination on a turning rod.)

As for `C=CCN(C(=O)c1sc2nc(-c3cccnc3)ccc2c1N)c1ccccc1` [Example 1, N-allyl-3-amino-N-phenyl-6-(3-pyridinyl)thieno[2,3-b]pyridine-2-carboxamide], the “Effects on model mice” value (SOD1 G93A transgenic mice) is reported as “Significant effects”. The “number of motor neurons in spinal cord (Nissl staining)” value (SOD1 G93A transgenic mice, 31 weeks old, lumbar cord anterior horn, vs DMSO group, FIG. 11, 12) was “the number of motor neurons was significantly high”. Further, for the setting “male SOD1 G93A transgenic mice, 3 mM continuous i.c.v. by osmotic pump from 22 weeks old, vs DMSO, FIG. 10A”, the “period of time required until the onset of the pathologic conditions (Onset), rotarod test” value was “the onset was significantly delayed”. Also, the “effect of extending the survival period (Survival)” value (male SOD1 G93A transgenic mice, 3 mM continuous i.c.v. by osmotic pump from 22 weeks old, vs DMSO, FIG. 10B) is “approximately 14%”.
